In ChEMBL document CHEMBL1201862, “PubChem BioAssay data set” (2004):
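In this assay, cells in 96-well plates receive the compound at five concentrations for 48 hours. Endpoints are linearly interpolated between the surrounding concentrations. Abbreviation: GI50, concentration required for 50% inhibition of growth.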 Active and inactive are the calls of the source. Cut-off read from the data, not from the text of the source: active = GI50 up to about 1.1 µM and inactive = higher.

What was measured:
Experiment in all cases: DTP human tumour cell line panel, 48 h
[1] = system: HCT-15
[2] = system: OVCAR-8
[3] = system: CCRF-CEM
[4] = system: NCI-H23
[5] = system: MCF7
[6] = system: SNB-75
[7] = system: COLO 205
[8] = system: UACC-257
[9] = system: HL-60
[10] = system: OVCAR-3
[11] = system: HOP-92
[12] = system: MDA-MB-231
[13] = system: Hs-578T
[14] = system: NCI-H226
[15] = system: OVCAR-5
[16] = system: ACHN
[17] = system: SF-268
[18] = system: HOP-62
[19] = system: M14
[20] = system: CAKI-1

SMILES	GI50 [1] [µM]	GI50 [2]	GI50 [3]	GI50 [4]	GI50 [5]	GI50 [6]	GI50 [7]	GI50 [8]	GI50 [9]	GI50 [10]	GI50 [11]	GI50 [12]	GI50 [13]	GI50 [14]	GI50 [15]	GI50 [16]	GI50 [17]	GI50 [18]	GI50 [19]	GI50 [20]
COc1ccc(C2NC(=O)Nc3c2c(=O)oc2c3ccc3ccccc32)cc1 (stereo not given)	46.1	66.8 µM (inactive)	37 µM (inactive)	52.6 µM (inactive)	66.2 µM (inactive)	22.3 µM (inactive)	> 100 µM (inactive)	> 100 µM (inactive)	70.8 µM (inactive)	92.9 µM (inactive)	35.2 µM (inactive)	54 µM (inactive)	41.4 µM (inactive)	23.4 µM (inactive)	> 100 µM (inactive)	51.6 µM (inactive)	56.4 µM (inactive)	61.4 µM (inactive)	37.6 µM (inactive)	52.8 µM (inactive)
COc1cccc(N2C(=O)CS(=O)(=O)C2c2cccc(Oc3ccccc3)c2)c1 (stereo not given)	5.27	21.6 µM (inactive)	26.9 µM (inactive)	23.4 µM (inactive)	3.04 µM (inactive)	15.6 µM (inactive)	6 µM (inactive)	15.3 µM (inactive)	11 µM (inactive)	19.5 µM (inactive)	12.7 µM (inactive)	30.4 µM (inactive)	21.8 µM (inactive)	19.1 µM (inactive)	34 µM (inactive)	20.1 µM (inactive)	24.4 µM (inactive)	25.2 µM (inactive)	15.4 µM (inactive)	26.1 µM (inactive)
